Patent US20220163532A1, “NUCLEAR-DERIVED EXOSOMES AND METHODS OF USE THEREOF” (Board of Regents, The University of Texas System, priority 2019, published 2022)

Experiments:
Assay type in all cases: cell-based, human
[1] = tested on: OVCAR-5 and OVCAR-8 cells; assay: MN quantification in ovarian cancer cells treated with genotoxic drugs (IF, Lamin A/C); details: topotecan 10 nM or olaparib 20 μM, vs DMSO
Protocol: IF experiments and MN quantification. Cells were plated at a density of 5×10^4 cells on sterile, 0.17-mm-thick coverslips (12-548-A, Thermo Fisher Scientific) placed at the bottom of six-well plates. The next day, cells were treated for 24 hours with either vehicle control dimethyl sulfoxide (DMSO; 1:1000 dilution; D2650, Sigma-Aldrich), 20 μM olaparib (O-9201, LC Laboratories), or 10 nM topotecan (T2705-50MG, Sigma-Aldrich). After 24 hours, the cells were washed with PBS and refed with the appropriate cell culture medium to grow for another 48 hours, for a total time of 72 hours after initial plating on the coverslips.
The drug-treated cells were first washed three times with PBS, fixed with 4% paraformaldehyde (PFA; 50-980-487, Thermo Fisher Scientific) diluted in PBS, and incubated at RT for 15 min with light rocking. […] Last, cells on coverslips were then washed four times with PBS and mounted on slides using ProLong Diamond Antifade Mountant (P36961, Thermo Fisher Scientific) and imaged with a Leica fluorescence microscope (Leica DM4000 M LED; Leica Microsystems) or an Andor Revolution XDi WD Spinning Disk Confocal microscope. For MN quantification, the number of MN in each 40× field was counted using 10 fields per sample. […]

ovarian cancer cells = assay: Nuclear proteins in exosomes from drug-treated ovarian cancer cells (Western blot); details: topotecan 10 nM or olaparib 20 μM
Protocol: (§1) Isolation of exosomes. The isolation method for exosomes that was used in this study followed the standard methods of the International Society of Extracellular Vesicles (Witwer et al., 2013). Cell lines described above were grown in the corresponding medium described above until 60 to 70% confluence was achieved. Cells were then washed twice with phosphate-buffered saline (PBS) and grown in corresponding medium containing 1% exosome-free FBS (EXO-FBS-250A-1, System Biosciences) plus 0.1% gentamicin for 48 hours. For exosome isolation, the harvested medium underwent serial centrifugation. First, the medium was spun down at 500g for 10 min to pellet any floating cells. Next, the supernatant was collected and spun down at 2000g for 30 min to pellet any residual cell debris. The resulting supernatant was then filtered through a 0.22-μm filter (SCGPUO5RE and SLGP033RS, Millipore-Sigma) to remove any remaining large vesicles. After filtration, the medium was spun down at 40,000 rpm for 2 hours at 4° C. in an ultracentrifuge (Optima XE, Beckman Coulter) with a Ti 45 fixed-angle rotor (339160, Beckman Coulter). […] Exosome concentration and quantity were determined using NTA with a NanoSight NS300 instrument (Malvern Panalytical).
Western blotting. […] Protein concentration was determined using the Micro BCA Protein Assay Kit (23235, Thermo Fisher Scientific) according to the manufacturer's protocol. […]

[2] = tested on: OVCAR-5 and OVCAR-8 cells; assay: DNA-positive exosomes (nExo) from drug-treated ovarian cancer cells by imaging flow cytometry; details: topotecan 10 nM or olaparib 20 μM, parental cells treated 48 hours, vs DMSO
Protocol: as §1, with “vesicles.” for “vesicles. After filtration, the medium was spun down at 40,000 rpm for 2 hours at 4° C. in an ultracentrifuge (Optima XE, Beckman Coulter) with a Ti 45 fixed-angle rotor (339160, Beckman Coulter).”
Exosome staining for imaging flow cytometry and analysis. For quantitative analysis and imaging flow cytometry of exosomes, the method described by Erdbrugger et al. (2014) using an Amnis ImageStreamX MarkII analyzer was adapted. […]

Q: Which results are given for O=C(c1cc(Cc2n[nH]c(=O)c3ccccc23)ccc1F)N1CCN(C(=O)C2CC2)CC1 [olaparib]?
A: number of MN [1]: increased significantly; population of exosomes containing nuclear proteins (ovarian cancer cells): increased; population of exosomes containing gDNA (proportion of nExo secreted) [2]: increased
